Source: patent US20240279171A1, “METHODS FOR PREPARING CRYSTALLINE FORMS OF AMISULPRIDE” (SUNOVION PHARMACEUTICALS INC., priority 2021, published 2024)
Where two headings read alike, the source gives them in different places. Values belong to the compound of their own block, whether it stands above or below them.

Assays:
[1] = DVS, 25° C., 0 to 95% relative humidity; '738 patent; cited from earlier work
[2] = Particle size distribution (Malvern Mastersizer), Example 16; type: physicochemical; conditions: for PSD D10 (μm) / PSD D50 (μm) / PSD D90 (μm): cooling method Y (Example 4) vs cooling method X (Example 14); for D10 (μm) / D50 (μm) / D90 (μm): crystalline amisulpride used in the tablet formulations, Mastersizer 2000
Excerpt: The particle size distribution (PSD) of crystalline products prepared by the foregoing examples were examined. FIG. 10 presents a plot of the cooling profile comparison between the cooling profile X, using the recrystallization procedure of, e.g., Example 14, with cooling profile Y, using the recrystallization procedure of, e.g., Example 4 (Step 2). Recrystallization using the cooling methods of Example 14 (cooling method X) provided Form A′ having a smaller particle size distribution (e.g., D50 and D90 values) than Form A′ prepared by the methods of Example 4 (cooling method Y), as shown in the table below.
PSD data was obtained using a Malvern Instruments Mastersizer particle size analyzer instrument.
The PSD of the crystalline amisulpride used in the various formulations are provided below. Amisulpride corresponding to “small PSD” can be prepared using the recrystallization and cooling methods of, e.g., Examples 14 and 15 (i.e., cooling profile X of FIG. 10). Amisulpride corresponding to “large PSD” can be prepared using the recrystallization methods of Examples 1 and 3 (i.e., cooling profile Y of FIG. 10). The PSDs were measured using a Mastersizer 2000 particle size analyzer instrument as described above.

[3] = Specific surface area (SSA), nitrogen gas, Quantachrome Quadrasorb SI; type: physicochemical; conditions: degassed 2 hours at 40° C. under vacuum
Description: Specific surface area (SSA) was measured using a Quantachrome Quadrasorb SI surface area analyzer performed at six-points over the relative pressure range of 0.1000 to 0.3500 in 0.0500 increments. Approximately 1.3 to 4.6 grams of sample were used per analysis and were weighed into bulb tubes. Samples in bulb tubes were degassed 2 hours at 40° C. under vacuum using the Quantachrome FlowVac degasser prior to surface area analysis. Nitrogen gas was used as the gas for the surface area analyses.

[4] = Particle size distribution by laser diffraction (Malvern Mastersizer 3000), Example 9; type: physicochemical; conditions: pre-sieved through 30 mesh screen, 0.2% Span 85 in hexanes
Description: Prior to analysis, the Form A′ crystals of (S)-amisulpride and Form A crystals of (R)-amisulpride were separately pre-sieved through a 30 mesh screen. All material was passed through screen during this pre-sieving step including aggregates.
Particle size distribution (PSD) measurements were measured by laser diffraction using a Malvern Instruments Mastersizer 3000 particle size analyzer instrument operated with the instrumentation and parameters described in Table 7.
The samples were first sieved through a 30 mesh screen prior to suspension. Approximately 400 mg of the sieved sample was weighed into a 50 ml beaker and 40 ml of a 0.2% v/v Span 85 (Sorbitan trioleate) in hexanes dispersant solution (e.g., a dispersant solution prepared by dissolving 2 mL of Span 85 (Sorbitan trioleate) in 1 L of hexanes) added. The overhead stirrer impeller was placed slightly above the bottom of the beaker (about 1 to 1.5 cm) and stirred at 500 rpm. After 1 minute, a disposable graduated transfer pipette was used to remove about 3 mL of the sample suspension from the center position of the beaker between impeller shaft and beaker side, and midway between top of vortex and beaker bottom. The entire contents of the pipette were added to the Malvern sample cell without inverting the pipette and the pipette rinsed twice with the circulating dispersant from the sample cell. The obscuration should be between 7% and 15%, if the obscuration was less than 7%, another aliquot of sample was added, making sure to transfer the entire aliquot taken up in the transfer pipette to the instrument, in order to avoid, e.g., potential artifacts due to settling of the suspension within the pipette. If the obscuration was greater than 15%, the instrument was drained and rinsed, and the measurement performed using a smaller sample suspension aliquot. After a sample cell with acceptable obscuration was obtained, the sample was circulated in the Mastersizer Hydro MV circulation system for two minutes and the sample dispersion measured.

[5] = Dynamic vapor sorption (DVS) water sorption isotherm; type: physicochemical; conditions: 25° C.; for hygroscopicity: DVS
Excerpt: In various embodiments, the hygroscopicity of a compound is characterized by dynamic vapor sorption (DVS). DVS is a gravimetric technique that measures how much of a solvent is absorbed by a sample by varying the vapor concentration surrounding the sample (e.g., relative humidity) and measuring the change in mass. DVS was used herein to generate water sorption isotherms, which represent the equilibrium amount of water vapor adsorbed and/or absorbed as a function of steady state relative water vapor pressure at a constant temperature.
Dynamic vapor sorption (DVS) isotherms were generated using a VTI SGA-100 Symmetric Vapor Sorption Analyzer. Analysis included pre-analysis drying at 25° C. with equilibrium criteria of 0.0000 wt % change in 5 minutes or a maximum of 180 minutes. Equilibrium criteria were the lesser of 0.01 wt % change in 5 minutes or 180 minutes at each RH step. […] Analysis was repeated for each sample in consecutive analyses (i.e., the sample was not removed from analyzer between analyses).
Tables 9A and 9B presents the DVS water sorption for crystalline enantiomeric amisulpride of Form A and Form A′ shown in FIG. 7A.

[6] = listed as Form A′ (averages of lots prepared by the methods of Example 4)

Compound: CCN1CCC[C@H]1CNC(=O)c1cc(S(=O)(=O)CC)c(N)cc1OC [(S)-amisulpride Form A′, (S)-4-Amino-N-[(1-ethyl-2-pyrrolidinyl)methyl]-5-(ethylsulfonyl)-2-methoxybenzamide]
hygroscopicity [1]: substantially non-hygroscopic | PSD D10 (μm) [2, 6]: 6.0 μm | PSD D50 (μm) [2, 6]: 29.1 μm | PSD D90 (μm) [2, 6]: 99.4 μm | SSA (m^2/g) [3]: 0.65 m^2/g | Average PSD D10 (μm) [4]: 9.5 μm | Average PSD D50 (μm) [4]: 32.3 μm | Average PSD D90 (μm) [4]: 116.9 μm | DVS Ads. at 95% RH [5]: 0.09 | Change Mass (wt %) ([5]; Relative Humidity 1.41 %, elapse time 180.73 min): 0.000 wt % | Change Mass (wt %) ([5]; Relative Humidity 5.38 %, elapse time 195.14 min): 0.003 wt % | Change Mass (wt %) ([5]; Relative Humidity 10.12 %, elapse time 207.64 min): 0.006 wt % | Change Mass (wt %) ([5]; Relative Humidity 15.00 %, elapse time 219.64 min): 0.011 wt % | Change Mass (wt %) ([5]; Relative Humidity 19.73 %, elapse time 227.64 min): 0.017 wt % | Change Mass (wt %) ([5]; Relative Humidity 24.91 %, elapse time 235.64 min): 0.023 wt % | Change Mass (wt %) ([5]; Relative Humidity 29.95 %, elapse time 243.64 min): 0.029 wt % | Change Mass (wt %) ([5]; Relative Humidity 34.98 %, elapse time 251.64 min): 0.033 wt % | Change Mass (wt %) ([5]; Relative Humidity 40.01 %, elapse time 260.64 min): 0.038 wt % | Change Mass (wt %) ([5]; Relative Humidity 44.94 %, elapse time 269.64 min): 0.042 wt % | Change Mass (wt %) ([5]; Relative Humidity 50.00 %, elapse time 278.64 min): 0.049 wt % | Change Mass (wt %) ([5]; Relative Humidity 55.02 %, elapse time 287.66 min): 0.053 wt % | Change Mass (wt %) ([5]; Relative Humidity 59.89 %, elapse time 296.66 min): 0.059 wt % | Change Mass (wt %) ([5]; Relative Humidity 64.92 %, elapse time 305.66 min): 0.066 wt % | Change Mass (wt %) ([5]; Relative Humidity 69.86 %, elapse time 314.66 min): 0.072 wt % | Change Mass (wt %) ([5]; Relative Humidity 74.97 %, elapse time 323.66 min): 0.076 wt % | Change Mass (wt %) ([5]; Relative Humidity 79.71 %, elapse time 332.66 min): 0.084 wt % | Change Mass (wt %) ([5]; Relative Humidity 84.74 %, elapse time 341.66 min): 0.094 wt % | Change Mass (wt %) ([5]; Relative Humidity 89.75 %, elapse time 350.66 min): 0.103 wt % | Change Mass (wt %) ([5]; Relative Humidity 94.55 %, elapse time 359.68 min): 0.114 wt % | hygroscopicity [5]: substantially non-hygroscopic

Compound: CCN1CCC[C@@H]1CNC(=O)c1cc(S(=O)(=O)CC)c(N)cc1OC [Form A small PSD]
D10 (μm) [2]: 4.7 μm | D50 (μm) [2]: 18.2 μm | D90 (μm) [2]: 90.4 μm

Compound: CCN1CCC[C@@H]1CNC(=O)c1cc(S(=O)(=O)CC)c(N)cc1OC [Form A large PSD]
D10 (μm) [2]: 12.8 μm | D50 (μm) [2]: 94.9 μm | D90 (μm) [2]: 441.4 μm

Now from value to compound, other results behind:

PSD D10 (μm) [2]: 7.0 μm | PSD D50 (μm) [2]: 25.5 μm | PSD D90 (μm) [2]: 83.9 μm
Compound: CCN1CCC[C@H]1CNC(=O)c1cc(S(=O)(=O)CC)c(N)cc1OC [Form A′ prepared by Example 14, (S)-4-Amino-N-[(1-ethyl-2-pyrrolidinyl)methyl]-5-(ethylsulfonyl)-2-methoxybenzamide]

SSA (m^2/g) [3]: 0.51 m^2/g | Average PSD D10 (μm) [4]: 14.3 μm | Average PSD D50 (μm) [4]: 47.7 μm | Average PSD D90 (μm) [4]: 133.9 μm | DVS Ads. at 95% RH [5]: 0.14 | Change Mass (wt %) ([5]; Relative Humidity 1.39 %, elapse time 155.38 min): 0.000 wt % | Change Mass (wt %) ([5]; Relative Humidity 4.79 %, elapse time 327.39 min): −0.003 wt % | Change Mass (wt %) ([5]; Relative Humidity 10.00 %, elapse time 340.39 min): 0.003 wt % | Change Mass (wt %) ([5]; Relative Humidity 14.96 %, elapse time 359.89 min): 0.009 wt % | Change Mass (wt %) ([5]; Relative Humidity 19.81 %, elapse time 366.91 min): 0.015 wt % | Change Mass (wt %) ([5]; Relative Humidity 24.91 %, elapse time 374.93 min): 0.020 wt % | Change Mass (wt %) ([5]; Relative Humidity 30.02 %, elapse time 382.94 min): 0.026 wt % | Change Mass (wt %) ([5]; Relative Humidity 34.96 %, elapse time 390.96 min): 0.031 wt % | Change Mass (wt %) ([5]; Relative Humidity 39.94 %, elapse time 398.96 min): 0.038 wt % | Change Mass (wt %) ([5]; Relative Humidity 44.99 %, elapse time 406.96 min): 0.043 wt % | Change Mass (wt %) ([5]; Relative Humidity 49.99 %, elapse time 415.98 min): 0.049 wt % | Change Mass (wt %) ([5]; Relative Humidity 54.96 %, elapse time 424.99 min): 0.055 wt % | Change Mass (wt %) ([5]; Relative Humidity 59.96 %, elapse time 434.01 min): 0.061 wt % | Change Mass (wt %) ([5]; Relative Humidity 64.91 %, elapse time 443.03 min): 0.067 wt % | Change Mass (wt %) ([5]; Relative Humidity 69.86 %, elapse time 452.04 min): 0.073 wt % | Change Mass (wt %) ([5]; Relative Humidity 74.86 %, elapse time 461.04 min): 0.080 wt % | Change Mass (wt %) ([5]; Relative Humidity 79.80 %, elapse time 470.04 min): 0.087 wt % | Change Mass (wt %) ([5]; Relative Humidity 84.74 %, elapse time 479.04 min): 0.101 wt % | Change Mass (wt %) ([5]; Relative Humidity 89.58 %, elapse time 488.06 min): 0.113 wt % | Change Mass (wt %) ([5]; Relative Humidity 94.72 %, elapse time 497.06 min): 0.135 wt % | hygroscopicity [5]: substantially non-hygroscopic
Compound: CCN1CCC[C@@H]1CNC(=O)c1cc(S(=O)(=O)CC)c(N)cc1OC [(R)-amisulpride Form A, (R)-4-Amino-N-[(1-ethyl-2-pyrrolidinyl)methyl]-5-(ethylsulfonyl)-2-methoxybenzamide]
hygroscopicity [1]: substantially non-hygroscopic

D10 (μm) [2]: 31.6 μm | D50 (μm) [2]: 93.1 μm | D90 (μm) [2]: 425.4 μm
Compound: CCN1CCC[C@H]1CNC(=O)c1cc(S(=O)(=O)CC)c(N)cc1OC [Form A′ large PSD]

D10 (μm) [2]: 5.1 μm | D50 (μm) [2]: 18.3 μm | D90 (μm) [2]: 80.1 μm
Compound: CCN1CCC[C@H]1CNC(=O)c1cc(S(=O)(=O)CC)c(N)cc1OC [Form A′ small PSD]
